The structures appear in SMILES notation. pIC50: −log10 of the molar value.

Assay [1] deals with T1, AR-VP16 (Homo sapiens, UniProt P10275).
T1 sequence (P10275 560-920 limits assumed): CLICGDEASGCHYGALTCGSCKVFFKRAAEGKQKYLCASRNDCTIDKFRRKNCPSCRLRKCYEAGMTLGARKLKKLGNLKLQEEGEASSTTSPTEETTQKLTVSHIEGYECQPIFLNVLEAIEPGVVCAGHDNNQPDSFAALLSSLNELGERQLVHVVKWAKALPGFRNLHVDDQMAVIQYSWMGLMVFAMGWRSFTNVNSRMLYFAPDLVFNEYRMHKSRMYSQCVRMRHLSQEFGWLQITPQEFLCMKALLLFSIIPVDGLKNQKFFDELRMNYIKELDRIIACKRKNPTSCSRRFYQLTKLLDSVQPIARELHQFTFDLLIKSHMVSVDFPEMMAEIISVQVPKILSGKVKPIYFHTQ
Briefly: AR-VP16 DNA Binding Assay, agonist mode (HepG2 cells). It counts as cell-based. The following applies: Emax >20x DMSO control = agonist.

Assay [2] concerns the target T1, AR-VP16. Briefly: AR-VP16 DNA Binding Assay, antagonist mode (HepG2 cells, 0.1 nM R1881). It counts as cell-based. The procedure, abridged:
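HepG2 cells transiently transfected with AR-VP16 (Lipofectin), incubated overnight, then treated with compound in RPMI with charcoal-stripped serum. Antagonist mode adds R1881 at 0.1 nM final. Cells lysed after 48 h incubation for read-out.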

What is called pIC50 is −log10 of the IC50, conventionally taken in molar units. A high value points to a low IC50. In the case of `Cc1cc(N2C(=O)C3(CCC3)N(c3ccc(-c4cncc(F)c4)cc3)C2=S)cnc1C#N` [Compound 105, 5-(5-(4-(5-Fluoropyridin-3-yl)phenyl)-8-oxo-6-thioxo-5,7-diazaspiro[3.4]octan-7-yl)-3-methylpicolinonitrile], at AR-VP16 [1], the “ARVP16 DNA Binding Assay (Agonist mode): Agonist?” value (“ARVP16 DNA Binding Assay” below) is reported as “No (Agonist defined as a compound whose Emax in the ARVP16 DNA Binding Assay (Agonist mode) is >20x DMSO control)”. Also, the pIC50 on AR-VP16 [2] was greater than 6.00.

`CNC(=O)c1ccc(N2C(=S)N(c3cnc(C#N)c(C)c3)C(=O)C23CCC3)cc1C` [Compound 106, 4-(7-(6-Cyano-5-methylpyridin-3-yl)-8-oxo-6-thioxo-5,7-diazaspiro[3.4]octan-5-yl)-N,2-dimethylbenzamide]: the “ARVP16 DNA Binding Assay” value at AR-VP16 [1] was “No (Agonist defined as a compound whose Emax in the ARVP16 DNA Binding Assay (Agonist mode) is >20x DMSO control)”. The compound further showed a pIC50 at AR-VP16 [2] greater than 6.00.

On to `CNC(=O)c1ccc(N2C(=S)N(c3cnc(C#N)c(C)c3)C(=O)C23CCC3)cc1OC` [Compound 107, 4-(7-(6-Cyano-5-methylpyridin-3-yl)-8-oxo-6-thioxo-5,7-diazaspiro[3.4]octan-5-yl)-2-methoxy-N-methylbenzamide], for which the “ARVP16 DNA Binding Assay” value on AR-VP16 [1] was “No (Agonist defined as a compound whose Emax in the ARVP16 DNA Binding Assay (Agonist mode) is >20x DMSO control)”. At AR-VP16 [2], this compound showed a negative logarithm of the IC50 (pIC50) greater than 6.00.

As for `Cc1cc(N2C(=O)C3(CCC3)N(c3ccc4c(c3)CNC4=O)C2=S)cnc1C#N` [Compound 111, 3-Methyl-5-(8-oxo-5-(1-oxoisoindolin-5-yl)-6-thioxo-5,7-diazaspiro[3.4]octan-7-yl)picolinonitrile], the “ARVP16 DNA Binding Assay” value on AR-VP16 [1] was “No (Agonist defined as a compound whose Emax in the ARVP16 DNA Binding Assay (Agonist mode) is >20x DMSO control)”. Further, the pIC50 on AR-VP16 [2] was less than 6.00.

As for `CNC(=O)c1ccc(N2C(=S)N(c3cnc(C#N)c(C(F)F)c3)C(=O)C23CCC3)cc1F` [Compound 113, 4-(7-(6-Cyano-5-(difluoromethyl)pyridin-3-yl)-8-oxo-6-thioxo-5,7-diazaspiro[3.4]octan-5-yl)-2-fluoro-N-methylbenzamide], the “ARVP16 DNA Binding Assay” value at AR-VP16 [1] was “No (Agonist defined as a compound whose Emax in the ARVP16 DNA Binding Assay (Agonist mode) is >20x DMSO control)”. Also, the pIC50 at AR-VP16 [2] was greater than 6.00.

Turning to `N#Cc1ncc(N2C(=O)C3(CCC3)N(c3ccc(C4CCOCC4)cc3)C2=S)cc1C(F)(F)F` [Compound 115, 5-(8-Oxo-5-(4-(tetrahydro-2H-pyran-4-yl)phenyl)-6-thioxo-5,7-diazaspiro[3.4]octan-7-yl)-3-(trifluoromethyl)picolinonitrile], the “ARVP16 DNA Binding Assay” value at AR-VP16 [1] is listed as “No (Agonist defined as a compound whose Emax in the ARVP16 DNA Binding Assay (Agonist mode) is >20x DMSO control)”. Besides, the pIC50 at AR-VP16 [2] is greater than 6.00.

As to `Cc1cc(N2C(=O)C3(CCC3)N(c3ccc(-c4ccco4)cc3)C2=S)cnc1C#N` [Compound 116, 5-(5-(4-(Furan-2-yl)phenyl)-8-oxo-6-thioxo-5,7-diazaspiro[3.4]octan-7-yl)-3-methylpicolinonitrile], on AR-VP16 [1], the “ARVP16 DNA Binding Assay” value is recorded as “No (Agonist defined as a compound whose Emax in the ARVP16 DNA Binding Assay (Agonist mode) is >20x DMSO control)”. Moreover, the pIC50 on AR-VP16 [2] is greater than 6.00.

With `O=C1N(c2ccc3nnc(C(F)(F)F)n3n2)C(=S)N(c2ccc(O)c(F)c2)C12CCC2` [Compound 117, 5-(3-Fluoro-4-hydroxyphenyl)-6-thioxo-7-(3-(trifluoromethyl)-[1,2,4]triazolo[4,3-b]pyridazin-6-yl)-5,7-diazaspiro[3.4]octan-8-one], at AR-VP16 [1], the “ARVP16 DNA Binding Assay” value is on record as “No (Agonist defined as a compound whose Emax in the ARVP16 DNA Binding Assay (Agonist mode) is >20x DMSO control)”. For the same compound, the pIC50 on AR-VP16 [2] is less than 6.00.

For the compound `CN(C)S(=O)(=O)c1ccc(N2C(=S)N(c3cnc(C#N)c(C(F)(F)F)c3)C(=O)C23CCC3)cc1` [Compound 121, 4-(7-(6-Cyano-5-(trifluoromethyl)pyridin-3-yl)-8-oxo-6-thioxo-5,7-diazaspiro[3.4]octan-5-yl)-N,N-dimethylbenzenesulfonamide], the “ARVP16 DNA Binding Assay” value at AR-VP16 [1] is “No (Agonist defined as a compound whose Emax in the ARVP16 DNA Binding Assay (Agonist mode) is >20x DMSO control)”. Moreover, the pIC50 at AR-VP16 [2] is less than 6.00.

For the compound `COC(=O)CCCc1ccc(N2C(=S)N(c3cnc(C#N)c(C(F)(F)F)c3)C(=O)C23CCC3)cc1` [Compound 122, Methyl 4-(4-(7-(6-cyano-5-(trifluoromethyl)pyridin-3-yl)-8-oxo-6-thioxo-5,7-diazaspiro[3.4]octan-5-yl)phenyl)butanoate], the “ARVP16 DNA Binding Assay” value on AR-VP16 [1] is reported as “No (Agonist defined as a compound whose Emax in the ARVP16 DNA Binding Assay (Agonist mode) is >20x DMSO control)”. Further, the pIC50 on AR-VP16 [2] was less than 6.00.

In the case of `N#Cc1ncc(N2C(=O)C3(CCC3)N(c3ccc(F)c(O)c3)C2=S)cc1C(F)(F)F` [Compound 123, 5-(5-(4-Fluoro-3-hydroxyphenyl)-8-oxo-6-thioxo-5,7-diazaspiro[3.4]octan-7-yl)-3-(trifluoromethyl)picolinonitrile], at AR-VP16 [1], the “ARVP16 DNA Binding Assay” value is on record as “No (Agonist defined as a compound whose Emax in the ARVP16 DNA Binding Assay (Agonist mode) is >20x DMSO control)”. On AR-VP16 [2], this compound had a pIC50 of less than 6.00.

As for `N#Cc1ncc(N2C(=O)C3(CCC3)N(c3ccc4ncoc4c3)C2=S)cc1C(F)(F)F` [Compound 125, 5-(5-(Benzo[d]oxazol-6-yl)-8-oxo-6-thioxo-5,7-diazaspiro[3.4]octan-7-yl)-3-(trifluoromethyl)picolinonitrile], the “ARVP16 DNA Binding Assay” value at AR-VP16 [1] is “No (Agonist defined as a compound whose Emax in the ARVP16 DNA Binding Assay (Agonist mode) is >20x DMSO control)”. The pIC50 on AR-VP16 [2] was greater than 6.00.

Consider `Cn1nccc1CCOc1ccc(N2C(=S)N(c3cnc(C#N)c(C(F)(F)F)c3)C(=O)C23CCC3)cc1F` [Compound 126, 5-(5-(3-Fluoro-4-(2-(1-methyl-1H-pyrazol-5-yl)ethoxy)phenyl)-8-oxo-6-thioxo-5,7-diazaspiro[3.4]octan-7-yl)-3-(trifluoromethyl)picolinonitrile], for which the “ARVP16 DNA Binding Assay” value at AR-VP16 [1] is reported as “Yes (Agonist defined as a compound whose Emax in the ARVP16 DNA Binding Assay (Agonist mode) is >20x DMSO control)”. The compound also showed a pIC50 at AR-VP16 [2] greater than 6.00.

With `N#Cc1ncc(N2C(=O)C3(CCC3)N(c3ccc(OCc4ccccc4)c(F)c3)C2=S)cc1C(F)(F)F` [Compound 128, 5-(5-(4-(Benzyloxy)-3-fluorophenyl)-8-oxo-6-thioxo-5,7-diazaspiro[3.4]octan-7-yl)-3-(trifluoromethyl)picolinonitrile], at AR-VP16 [1], the “ARVP16 DNA Binding Assay” value is “No (Agonist defined as a compound whose Emax in the ARVP16 DNA Binding Assay (Agonist mode) is >20x DMSO control)”. Moreover, the pIC50 at AR-VP16 [2] was greater than 6.00.

For `N#Cc1ncc(N2C(=O)C3(CCC3)N(c3ccc(OCCc4ccccn4)c(F)c3)C2=S)cc1C(F)(F)F` [Compound 130, 5-(5-(3-Fluoro-4-(2-(pyridin-2-yl)ethoxy)phenyl)-8-oxo-6-thioxo-5,7-diazaspiro[3.4]octan-7-yl)-3-(trifluoromethyl)picolinonitrile], the “ARVP16 DNA Binding Assay” value at AR-VP16 [1] is reported as “No (Agonist defined as a compound whose Emax in the ARVP16 DNA Binding Assay (Agonist mode) is >20x DMSO control)”. The compound further showed a pIC50 on AR-VP16 [2] greater than 6.00.

Turning to `COCCOc1ccc(N2C(=S)N(c3cnc(C#N)c(C(F)(F)F)c3)C(=O)C23CCC3)cc1F` [Compound 131, 5-(5-(3-Fluoro-4-(2-methoxyethoxy)phenyl)-8-oxo-6-thioxo-5,7-diazaspiro[3.4]octan-7-yl)-3-(trifluoromethyl)picolinonitrile], the “ARVP16 DNA Binding Assay” value on AR-VP16 [1] is “No (Agonist defined as a compound whose Emax in the ARVP16 DNA Binding Assay (Agonist mode) is >20x DMSO control)”. For the same compound, on AR-VP16 [2], the negative-log IC50 (pIC50) is greater than 6.00.

On to `CCOC(=O)COc1ccc(N2C(=S)N(c3cnc(C#N)c(C(F)(F)F)c3)C(=O)C23CCC3)cc1F` [Compound 132, Ethyl 2-(4-(7-(6-cyano-5-(trifluoromethyl)pyridin-3-yl)-8-oxo-6-thioxo-5,7-diazaspiro[3.4]octan-5-yl)-2-fluorophenoxy)acetate], for which, on AR-VP16 [1], the “ARVP16 DNA Binding Assay” value is reported as “No (Agonist defined as a compound whose Emax in the ARVP16 DNA Binding Assay (Agonist mode) is >20x DMSO control)”. The same compound gave a negative-log IC50 (pIC50) on AR-VP16 [2] of less than 6.00.

For `COCCCCOc1ccc(N2C(=S)N(c3cnc(C#N)c(C(F)(F)F)c3)C(=O)C23CCC3)cc1F` [Compound 133, 5-(5-(3-Fluoro-4-(4-methoxybutoxy)phenyl)-8-oxo-6-thioxo-5,7-diazaspiro[3.4]octan-7-yl)-3-(trifluoromethyl)picolinonitrile], on AR-VP16 [1], the “ARVP16 DNA Binding Assay” value was “No (Agonist defined as a compound whose Emax in the ARVP16 DNA Binding Assay (Agonist mode) is >20x DMSO control)”. The compound also gave a pIC50 on AR-VP16 [2] greater than 6.00.

In the case of `N#Cc1ncc(N2C(=O)C3(CCC3)N(c3ccc(OCCCCOCc4ccccc4)c(F)c3)C2=S)cc1C(F)(F)F` [Compound 136, 5-(5-(4-(4-(Benzyloxy)butoxy)-3-fluorophenyl)-8-oxo-6-thioxo-5,7-diazaspiro[3.4]octan-7-yl)-3-(trifluoromethyl)picolinonitrile], the “ARVP16 DNA Binding Assay” value on AR-VP16 [1] is “No (Agonist defined as a compound whose Emax in the ARVP16 DNA Binding Assay (Agonist mode) is >20x DMSO control)”. The pIC50 at AR-VP16 [2] is greater than 6.00.

The record behind these values is US9108944B2, “Androgen receptor modulators and uses thereof” (ARAGON PHARMACEUTICALS, INC., priority 2010, dated 2015).
